Key:
[1] = test system: blood glucose level; assay: Oral glucose tolerance test in Zucker fatty rats (Example 3); type: in vivo, Male Zucker fatty rats; details: 28 days oral once a day, compound A 0.3 mg/kg, pitavastatin 3 mg/kg, fenofibrate 100 mg/kg
Experimental: As a method for examining diabetes mellitus, an oral glucose tolerance test, that is, a method in which a test subject fasted overnight is orally fed with a glucose solution, and blood is collected before and after the feeding, to examine the degree of increase in the blood glucose level, is widely performed. Thus, the Zucker fatty rat was used and administered with medicaments, and then an oral glucose tolerance test was performed to investigate the influence of the medicament of the present invention exerted on the blood glucose level. Male Zucker fatty rats (Crlj: ZUC-Lepr^fa, Japan Charles River Co. Ltd., 9 weeks old) were taken for the test. […] Additionally, when the pitavastatin was a hydrate as in the case of the present Example, the water content of a standard product was measured by a conventional method known to those ordinarily skilled in the art, and the amount required in the production of drug based on the water content of the “pitavastatin calcium hydrate” used in the present Example was calculated. […] The blood glucose level was measured by an enzymatic method. […] A risk rate of less than 5% was determined to have a significant difference.

[2] = test system: triglyceride concentration in blood plasma; assay: Triglyceride concentration in blood plasma of rats after repeated oral administration (Example 1); type: in vivo, Male Sprague Dawley rats; details: two weeks after the initiation of administration (14th day), oral once a day, pitavastatin 10 mg/kg, compound A 0.3 mg/kg, N = 8; for triglyceride concentration in blood plasma, Average value ± Standard error: in mg/dL
Experimental: (§1) Male Sprague Dawley rats (Crl: CD (SD), Japan Charles River Co. Ltd., 6 weeks old) were taken for the test. Throughout the test period, the rats were bred in a breeding room maintained with a light/dark cycle (bright period under room light: 7 A.M. to 7 P.M.) at a temperature of 23±3° C. and a humidity of 55±15%, and were allowed to freely take solid feedstuff (CE-2; Oriental Yeast Co. Ltd.) and tap water. Compound A and pitavastatin were each suspended in a 0.5 mass % aqueous solution of methylcellulose (Metolose (registered trademark) SM-400, Shin-Etsu Chemical Co. Ltd.), and the amount of administration of the aqueous solution was adjusted to be 2 mL/kg. The suspension was stored in a shading bottle under refrigeration (4° C.), and the preparation was performed once every 7 days. Additionally, when the pitavastatin is a hydrate as in the case of the present Example, the water content of a standard product can be measured by a conventional method known to those ordinarily skilled in the art, and the amount required in the production of drug based on the water content of the “pitavastatin calcium hydrate” used in the present Example can be calculated. […] The two medicaments were orally administered repeatedly for 14 days at a rate of once a day (in the morning). The control group of the first group was orally administered with 2 mL/kg of a 0.5 mass % aqueous solution of methylcellulose. […] Furthermore, the LDL-cholesterol concentration in blood plasma was measured using high performance liquid chromatography according to the method of Usui et al. (Lipid Res., 43:805-814, 2002). The results were shown in the form of average value±standard error. A multiple group comparison between the control group and the drug administered groups was conducted using Dunnett' s multiple comparison test. A risk rate of less than 5% was determined to have a significant difference.

[3] = test system: triglyceride concentration in blood plasma; assay: Plasma triglyceride concentration in Zucker fatty rats after repeated oral administration (Example 2); type: in vivo, Male Zucker fatty rats; details: compound A 0.1 mg/kg, pitavastatin 10 mg/kg, fenofibrate 100 mg/kg; for triglyceride concentration in blood plasma, Average value ± Standard error / triglyceride concentration in blood plasma, Relative value compared to control group: two weeks (14th day), oral once a day, N = 7-8; for rate of decrease of the triglyceride concentration in blood plasma: two weeks, vs control group
Experimental: The effect of administration of compound A and pitavastatin on the plasma triglyceride concentration in this animal model was determined according to the following methods.
Male Zucker fatty rats (Crlj: ZUC-Lepr^fa, Japan Charles River Co. Ltd., 10 weeks old) were taken for the test.
Throughout the test period, the rats were bred in a breeding room maintained with a light/dark cycle (bright period under room light: 7 A.M. to 7 P.M.) at a temperature of 23±3° C. and a humidity of 55±15%, and were allowed to freely take solid feedstuff (CE-2; Oriental Yeast Co. Ltd.) and tap water.
Compound A, pitavastatin and fenofibrate (Sigma-Aldrich Co. Ltd.) were each suspended in a 0.5 mass % aqueous solution of methylcellulose (Metolose (registered trademark) SM-400, Shin-Etsu Chemical Co. Ltd.), and the amount of administration of the aqueous solution was adjusted to be 2 mL/kg. The suspension was stored in a shading bottle under refrigeration (4° C.), and the preparation was carried out once every 7 days. Additionally, when the pitavastatin was a hydrate as in the case of the present Example, the water content of a standard product was measured by a conventional method known to those ordinarily skilled in the art, and the amount required in the production of drug based on the water content of the “pitavastatin calcium hydrate” used in the present Example was calculated.
In order to average the total cholesterol concentration and the triglyceride concentration in blood plasma, the rats were divided into the following six groups (eight animals each group), that is, a control group as a first group, a group administered with compound A only (0.1 mg/kg) as a second group, a group administered with pitavastatin only (10 mg/kg) as a third group, a group administered with fenofibrate only (100 mg/kg) as a fourth group, a group administered with pitavastatin (10 mg/kg) and compound A (0.1 mg/kg) in combination as a fifth group, and a group administered with pitavastatin (10 mg/kg) and fenofibrate (100 mg/kg) in combination as a sixth group.
The two medicaments were orally administered repeatedly for 14 days at a rate of once a day (in the morning). The control group of the first group was orally administered with 2 mL/kg of a 0.5 mass % aqueous solution of methylcellulose.
On the 14th day after the initiation of administration, the rats were fasted for 4 hours from administration, then blood was collected, and the triglyceride concentration in blood plasma was measured by an enzymatic method.
A multiple group comparison between the control group and the drug administered groups was conducted using Dunnett's multiple comparison test. A risk rate of less than 5% was determined to have a significant difference.

[4] = test system: total cholesterol concentration in blood plasma; assay: Total cholesterol concentration in blood plasma of rats after repeated oral administration (Example 1); type: in vivo, Male Sprague Dawley rats; details: oral once a day, pitavastatin 10 mg/kg, compound A 0.3 mg/kg, N = 8
Experimental: as §1

[5] = test system: LDL-cholesterol concentration in blood plasma; assay: LDL-cholesterol concentration in blood plasma of rats after repeated oral administration (Example 1); type: in vivo, Male Sprague Dawley rats; details: one week after the administration, oral once a day, pitavastatin 10 mg/kg, compound A 0.3 mg/kg, N = 8; for LDL-cholesterol concentration in blood plasma, Average value ± Standard error: in mg/dL
Experimental: as §1

[6] = test system: total plasma cholesterol concentration; details: results of clinical trials; cited from earlier work
[7] = one week after administration (7th day), 4 h fasted
[8] = two weeks after the initiation of administration (14th day)
[9] = two weeks after the initiation of administration (14th day), in mg/dL

SMILES	change in blood glucose level over time after glucose loading (FIG. 3A) [1]	triglyceride concentration in blood plasma, Relative value compared to control group [2]	triglyceride concentration in blood plasma, Average value ± Standard error [2]	triglyceride concentration in blood plasma, Relative value compared to control group ([2]; listed as compound A)	triglyceride concentration in blood plasma, Average value ± Standard error [3] [mg/dL]	triglyceride concentration in blood plasma, Relative value compared to control group [3]	rate of decrease of the triglyceride concentration in blood plasma [3] [%]	total cholesterol concentration in blood plasma, Average value ± Standard error [4, 7] [mg/dL]	total cholesterol concentration in blood plasma, Relative value compared to control group ([4]; one week after administration (7th day))	total cholesterol concentration in blood plasma, Relative value compared to control group ([4]; one week after administration (7th day), listed as compound A)	total cholesterol concentration in blood plasma, Relative value compared to control group [4, 8]	total cholesterol concentration in blood plasma, Average value ± Standard error [4, 9]	LDL-cholesterol concentration in blood plasma, Relative value compared to control group [5]	LDL-cholesterol concentration in blood plasma, Average value ± Standard error [5]	triglyceride concentration in blood plasma, Relative value compared to control group ([2]; calcium hydrate)	rate of improvement in the total plasma cholesterol concentration [6] [%]	total cholesterol concentration in blood plasma, Relative value compared to control group ([4]; one week after administration (7th day), calcium hydrate)	total cholesterol concentration in blood plasma, Relative value compared to control group ([4]; one week after administration (7th day), listed as pitavastatin, calcium hydrate)
CC[C@@H](Oc1cccc(CN(CCCOc2ccc(OC)cc2)c2nc3ccccc3o2)c1)C(=O)O [Compound A, (R)-2-[3-[[N-(Benzoxazol-2-yl)-N-3-(4-methoxyphenoxy)propyl]aminomethyl]phenoxy]butyric acid]	rapid increases in the blood glucose level	0.806	33.3 ± 2.2	0.942	518.0 ± 106.0	0.798	20	48.3 ± 1.8	0.792	0.903	0.752	43.4 ± 1.9	0.698	8.1 ± 0.4				
CC(C)OC(=O)C(C)(C)Oc1ccc(C(=O)c2ccc(Cl)cc2)cc1 [Fenofibrate, fenofibrate]					546.3 ± 58.9	0.841	16											
O=C(O)C[C@H](O)C[C@H](O)/C=C/c1c(C2CC2)nc2ccccc2c1-c1ccc(F)cc1 [Pitavastatin, pitavastatin calcium hydrate]	rapid increases in the blood glucose level	0.942	38.9 ± 3.1		612.2 ± 61.0	0.943	6	55.1 ± 5.7			0.997	57.5 ± 6.6	0.974	11.3 ± 1.8	0.806	93.9	0.903	0.792
